We go through 32 molecules from patent US8071612B2, “6-alkenyl and 6-phenylalkyl substituted 2-quinolinones and 2-quinoxalinones as poly(ADP-ribose) polymerase inhibitors” (Janssen Pharmaceutica, NV, priority 2004, dated 2011).

For data set [1], the system named is infarct size in the heart. The note with it: rabbits, cited from earlier work.
A further data set deals with colitis. As to conditions: rats, colitis by intraluminal trinitrobenzene sulfonic acid in 50% ethanol; cited from earlier work.
Data set [2] concerns the target T1, PARP-1 enzyme (Homo sapiens, UniProt P09874).
T1 construct: made in house
Description: In vitro Scintillation Proximity Assay (SPA) for PARP-1 inhibitory activity. Format: biochemical. The note with it: nicked DNA activated PARP-1, [3H]-NAD+, biotinylated histones; read-out: In vitro SPA pIC50 (converted). Summed up: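 Human PARP-1 (5–10 μg/ml), activated by nicked DNA (2 μg/ml), ADP-ribosylated biotinylated histones (2 μg/ml) using [3H]-NAD+ as donor for 15 min at room temperature in Tris pH 8/DTT/MgCl2. The reaction was stopped with NAD+ (2 mM final) and read by SPA scintillation counting. IC50 was interpolated from blank-corrected % of control and reported as pIC50.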
(Scintillation proximity formats need no separation of bound from free tracer.)

Data set [3] has as its target T1, PARP-1 enzyme. Put plainly: In vitro filtration assay for PARP-1 inhibitory activity. As to conditions: nicked DNA activated PARP-1, [32P]-NAD, histones; read-out: In vitro filtration assay pIC50 (converted). Format: biochemical. The procedure:
Compounds of the present invention were tested in an in vitro filtration assay assessing PARP-1 activity (triggered in the presence of nicked DNA) by means of its histone poly (ADP-ribosyl)ation activity using [^32P]-NAD as ADP-ribosyl donor. The radioactive ribosylated histones were precipitated by trichloroacetic acid (TCA) in 96-well filterplates and the incorporated [^32P] measured using a scintillation counter
A mixture of histones (stock solution: 5 mg/ml in H2O), NAD (stock solution: 100 mM in H2O), and [^32P]-NAD^+ in incubation buffer (50 mM Tris/HCl, pH 8; 0.2 mM DTT; 4 mM MgCl2) was made. A mixture of the PARP-1 enzyme (5-10 μg/ml) and nicked DNA was also made. The nicked DNA was prepared as described in the in vitro SPA for PARP-1 inhibitory activity. Seventy-five μl of the PARP-1 enzyme/DNA mixture together with 1 μl of compound in DMSO and 25 μl of histones-NAD^+/[^32P]-NAD^+ mixture was added per well of a 96-well filterplate (0.45 μm, supplier Millipore). The final concentrations in the incubation mixture were 2 μg/ml for the histones, 0.1 mM for the NAD^+, […] (0.5 μC) for the [^32P]-NAD^+ and 2 μg/ml for the nicked DNA. Plates were incubated for 15 min. at room temperature and the reaction was terminated by the addition of 10 μl ice cold 100% TCA followed by the addition of 10 μl ice-cold BSA solution (1% in H2O). The protein fraction was allowed to precipitate for 10 min. at 4° C. and plates were vacuum filtered. The plates were subsequently washed with, for each well, 1 ml of 10% ice cold TCA, 1 ml of 5% ice cold TCA and 1 ml of 5% TCA at room temperature. Finally 100 μl of scintillation solution (Microscint 40, Packard) was added to each well and the plates were transferred to a TopCountNXT™ (supplier: Packard) for scintillation counting and values were expressed as counts per minute (cpm). For each experiment, controls (containing PARP-1 enzyme and DMSO without compound), a blank incubation (containing DMSO but no PARP-1 enzyme or compound) and samples (containing PARP-1 enzyme and compound dissolved in DMSO) were run in parallel. All compounds tested were dissolved and eventually further diluted in DMSO. In first instance, compounds were tested at a concentration of 10^−5M. […] In each test, the blank value was subtracted from both the control and the sample values. The control sample represented maximal PARP-1 enzyme activity. For each sample, the amount of cpm was expressed as a percentage of the mean cpm value of the controls. When appropriate, IC50-values (concentration of the drug, needed to reduce the PARP-1 enzyme activity to 50% of the control) were computed using linear interpolation between the experimental points just above and below the 50% level. Herein the effects of test compounds are expressed as pIC50 (the negative log value of the IC50-value). As a reference compound, 4-amino-1,8-naphthalimide was included to validate the filtration assay.

T1 sequence (P09874 whole entry): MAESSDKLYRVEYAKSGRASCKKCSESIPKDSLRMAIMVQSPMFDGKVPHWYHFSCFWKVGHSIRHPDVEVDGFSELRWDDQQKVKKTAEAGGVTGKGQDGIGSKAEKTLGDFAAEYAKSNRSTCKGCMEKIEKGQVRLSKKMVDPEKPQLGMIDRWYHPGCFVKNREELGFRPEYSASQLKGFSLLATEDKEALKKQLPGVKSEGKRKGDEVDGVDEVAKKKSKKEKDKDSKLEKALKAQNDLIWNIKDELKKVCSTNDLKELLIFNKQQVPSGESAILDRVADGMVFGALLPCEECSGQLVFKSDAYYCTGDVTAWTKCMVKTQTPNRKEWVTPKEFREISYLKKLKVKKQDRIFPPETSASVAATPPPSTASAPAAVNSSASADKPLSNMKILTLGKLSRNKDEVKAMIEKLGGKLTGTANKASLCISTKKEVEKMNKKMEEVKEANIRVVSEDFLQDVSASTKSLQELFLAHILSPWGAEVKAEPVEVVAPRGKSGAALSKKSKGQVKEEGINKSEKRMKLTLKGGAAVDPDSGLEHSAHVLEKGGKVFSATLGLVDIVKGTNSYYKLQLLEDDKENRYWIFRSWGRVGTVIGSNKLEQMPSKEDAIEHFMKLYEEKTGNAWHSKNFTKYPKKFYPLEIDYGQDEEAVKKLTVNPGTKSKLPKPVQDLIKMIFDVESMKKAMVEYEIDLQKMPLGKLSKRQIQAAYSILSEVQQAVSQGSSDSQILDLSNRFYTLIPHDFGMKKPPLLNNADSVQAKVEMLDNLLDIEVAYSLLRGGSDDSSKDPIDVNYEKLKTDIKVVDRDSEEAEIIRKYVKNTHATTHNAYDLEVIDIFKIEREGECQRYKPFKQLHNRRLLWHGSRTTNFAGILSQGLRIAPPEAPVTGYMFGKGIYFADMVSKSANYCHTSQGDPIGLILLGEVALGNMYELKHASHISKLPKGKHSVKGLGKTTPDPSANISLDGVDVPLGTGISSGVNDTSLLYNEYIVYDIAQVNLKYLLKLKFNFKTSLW

In general, melting point refers to the temperature of the solid-liquid transition. Regarding `Cc1cc2cc(C(c3ccccc3)c3cncn3C)ccc2[nH]c1=O` (stereo not shown) (hydrate or solvate) [Compound 10], the melting point was found to be 240 °C.
Consider `CCc1cc2cc([C@@H](CCN3CCCCC3)c3ccc4c(c3)OCCO4)ccc2[nH]c1=O` (single isomer, unassigned) [Compound 144], for which the melting point was 159 °C.
`CCc1cc2cc([C@H](CCN3CCCCC3)c3ccc4c(c3)OCCO4)ccc2[nH]c1=O` (single isomer, unassigned) [Compound 145] returned a melting point of 172 °C.
Turning to `Oc1cccc2c(O)nccc12` [1,5-dihydroxyisoquinoline], the “reduction in infarct size” value in data set [1] (single injection 1 mg/kg) is given as 38-48%.
In the case of `NC(=O)c1cccc(N)c1` [3-amino-benzamide], the “effect on inflammatory response, morphology and energetic status of the distal colon” value in the data set on colitis is “reduced the inflammatory response and restored the morphology and the energetic status of the distal colon”. In data set [1] (single injection 10 mg/kg, one minute before occlusion or one minute before reperfusion), the “reduction in infarct size in the heart” value is on record as 32-42%.
`CNC(c1ccccc1)c1ccc2[nH]c(=O)c(C)cc2c1` (stereo not shown) [Compound 1]: the melting point was 174.3 °C. In addition, the IC50 at PARP-1 enzyme [2] was 285 nM. Further, the IC50 on PARP-1 enzyme [3] was 2330 nM.
On to `CCc1cc2cc(C(=O)c3ccc4c(c3)OCCO4)ccc2[nH]c1=O` [Compound 2], for which the melting point is 255 °C. Further, on PARP-1 enzyme [2], the IC50 was 735 nM.
For the molecule `CCc1cc2cc(C(OC(C)=O)c3ccccc3)ccc2[nH]c1=O` (stereo not shown) [Compound 3], the melting point stood at 168.2 °C. Besides, the IC50 on PARP-1 enzyme [2] is 407 nM. For the same molecule, the IC50 on PARP-1 enzyme [3] is 4340 nM.
Regarding `Cc1cc2cc(C(C#N)c3ccccc3)ccc2[nH]c1=O` (stereo not shown) [Compound 4], the melting point turned out to be 227.5 °C. Besides, the IC50 on PARP-1 enzyme [2] was 435 nM. At PARP-1 enzyme [3], the IC50 was 2670 nM.
`Cc1cc2cc(C(c3ccccc3)n3cncn3)ccc2[nH]c1=O` (stereo not shown) [Compound 5] registered a melting point of 254.2 °C. Moreover, the IC50 on PARP-1 enzyme [2] was 1400 nM. Moreover, the IC50 on PARP-1 enzyme [3] was 9440 nM.
`Cc1cc2cc(C(c3ccccc3)N(C)C)ccc2[nH]c1=O` (stereo not shown) [Compound 6] gave a melting point of 226.7 °C. For the same molecule, the IC50 on PARP-1 enzyme [2] is 957 nM. Further, on PARP-1 enzyme [3], the IC50 was 3940 nM.
`CC(=O)NCC(c1ccccc1)c1ccc2[nH]c(=O)c(C)cc2c1` (stereo not shown) [Compound 8] registered a melting point of 206.2 °C. Further, the IC50 on PARP-1 enzyme [2] is 213 nM. In addition, at PARP-1 enzyme [3], the IC50 is 2540 nM.
In turn, `COC(c1ccccc1)c1ccc2[nH]c(=O)c(C)cc2c1` (stereo not shown) [Compound 9] showed a melting point of 207.3 °C. Besides, the IC50 on PARP-1 enzyme [2] is 1800 nM. Moreover, the IC50 at PARP-1 enzyme [3] was 9400 nM.
In turn, `COCCNC1CCN(C(c2ccc3c(c2)OCCO3)c2ccc3[nH]c(=O)c4ccccc4c3c2)CC1` (stereo not shown) [Compound 11] showed a melting point of 116 °C. Moreover, the IC50 at PARP-1 enzyme [2] was 7.29 nM.
In the case of `CCc1cc2cc(C(O)c3ccc4c(c3)OCO4)ccc2[nH]c1=O` (stereo not shown) [Compound 12], the melting point stood at 211 °C. For the same molecule, at PARP-1 enzyme [2], the IC50 was 40.1 nM.
In turn, `CCc1cc2cc(C(c3ccc4c(c3)OCCO4)C3CCN(C/C=C/c4ccccc4)CC3)ccc2[nH]c1=O` (stereo not shown) [Compound 14] returned a melting point of 107 °C. Further, on PARP-1 enzyme [2], the IC50 was 97.1 nM.
The molecule `CCc1cc2cc(C(CCN3CCCCC3)c3ccc4c(c3)OCCO4)ccc2[nH]c1=O` (stereo not shown) [Compound 16] yielded a melting point of 181 °C. Also, the IC50 on PARP-1 enzyme [2] is 9.2 nM.
In turn, `CCc1cc2cc(C(c3ccccc3)n3ccnc3)ccc2[nH]c1=O` (stereo not shown) [Compound 17] returned a melting point of 220.1 °C. On PARP-1 enzyme [2], the IC50 is 152 nM. Also, the IC50 on PARP-1 enzyme [3] was 619 nM.
In turn, `CCc1cc2cc(C(NC=O)c3ccc4c(c3)OCCO4)ccc2[nH]c1=O` (stereo not shown) [Compound 18] showed a melting point greater than 260 °C. The IC50 at PARP-1 enzyme [2] is 19.5 nM.
With `CCc1nc2cc(CC(O)c3ccc(Cl)cc3)ccc2[nH]c1=O` (stereo not shown) [Compound 19], the melting point amounted to 204 °C. Also, the IC50 at PARP-1 enzyme [2] is 256 nM.
`CCc1nc2cc(CC(c3ccc(Cl)cc3)n3ccnc3)ccc2[nH]c1=O` (stereo not shown) [Compound 20]: the melting point came out at 270 °C. Further, at PARP-1 enzyme [2], the IC50 was 275 nM. Moreover, on PARP-1 enzyme [3], the IC50 was 1750 nM.
The molecule `CCc1nc2cc(CC(c3ccc(Cl)cc3)N3CCCC3)ccc2[nH]c1=O` (stereo not shown) [Compound 21] had a melting point of 194 °C. On PARP-1 enzyme [2], the IC50 is 191 nM.
The molecule `CCc1nc2cc(C(c3ccc(Cl)cc3)n3cncn3)ccc2[nH]c1=O` (stereo not shown) [Compound 22] registered a melting point of 188 °C. Also, the IC50 on PARP-1 enzyme [2] was 366 nM. Moreover, the IC50 at PARP-1 enzyme [3] is 4050 nM.
Consider `CCc1nc2cc(C(c3ccccc3)n3ccnc3)ccc2[nH]c1=O` (stereo not shown) [Compound 127, 3-ethyl-6-(1H-imidazol-1-ylphenylmethyl)-2(1H)-quinoxalinone], for which the IC50 on PARP-1 enzyme [2] was 1110 nM; at PARP-1 enzyme [3] it was 3660 nM.
Regarding `COc1ccc(C(c2ccc3[nH]c(=O)c(C)nc3c2)n2ccnc2)cc1` (stereo not shown) [Compound 128, 6-[(1H-imidazol-1-yl)(4-methoxyphenyl)methyl]-3-methyl-2(1H)-quinoxalinone], the IC50 at PARP-1 enzyme [2] was 361 nM; at PARP-1 enzyme [3], 2300 nM.
For the molecule `CCc1cc2cc(C(=C3CCNCC3)c3ccc4c(c3)OCCO4)ccc2[nH]c1=O` [Compound 131], the melting point stood at 249 °C. The IC50 at PARP-1 enzyme [2] was 27.7 nM.
`CCc1cc2cc(C(=C3CCN(CCc4ccc(OC)cc4)CC3)c3ccc4c(c3)OCCO4)ccc2[nH]c1=O` [Compound 132]: the melting point was determined as 203 °C. Besides, the IC50 on PARP-1 enzyme [2] was 57.1 nM.
In the same order, the values of `CCc1cc2cc(C(=C3CCN(CC(O)COc4ccc(OC)cc4)CC3)c3ccc4c(c3)OCCO4)ccc2[nH]c1=O` (stereo not shown) [Compound 133] are 219 °C and 124 nM.
As to `Cc1cc2cc(/C(=C3\CCCN(C)C3)c3ccccc3)ccc2[nH]c1=O` [Compound 134], the IC50 at PARP-1 enzyme [2] was 299 nM; on PARP-1 enzyme [3], 1560 nM.
For `Cc1cc2cc(/C(=C/CN(C)C)c3cccc4[nH]c(=O)c(C)cc34)ccc2[nH]c1=O` [Compound 135], the results for the IC50 at PARP-1 enzyme [2] and on PARP-1 enzyme [3] were 794 nM and 4180 nM, respectively.
For the molecule `CCc1cc2cc(/C(=C/CN(C)C)c3ccccc3)ccc2[nH]c1=O` [Compound 139], the IC50 at PARP-1 enzyme [2] is 668 nM; on PARP-1 enzyme [3], 4120 nM.
Consider `CCc1cc2cc(/C(=C\CN(C)C)c3ccccc3)ccc2[nH]c1=O` [Compound 140], for which the IC50 was 431 nM at PARP-1 enzyme [2] and 2150 nM at PARP-1 enzyme [3].
